Measured values reported in patent US20090304763A1, “Insect Attractant Composition” (priority 2006, published 2009).

Tests used:
[1] = surface energy of water with added acetone; type: physicochemical; details: 5% addition of acetone to water; water alone 73 dynes/cm
Text: While the C3-C12 ketones used in the composition are insufficient by themselves to act as an insect attractant; they provide other valuable properties to the composition. In particular, small-chain ketones have the ability to act as surface-active agents and thus provide the composition with a more consistent droplet diameter and a lower surface energy when the liquid composition is released. For instance, a 5% addition of acetone to water can reduce water surface energy from 73 dynes/cm to 56 dynes/cm. While not wishing to be bound by this theory, it is believed that producing a composition with a consistent and smaller diameter size provides a better presentation to the antennae of the flying insects.

[2] = system: mosquitoes; assay: test comparing acetone alone versus composition: share of available mosquitoes lured; type: in vivo; details: one test; acetone alone versus composition containing acetone, lactic acid and the fatty acid

In the case of `CC(C)=O` [acetone alone, acetone], the water surface energy [1] is reported as 56 dynes/cm and the “average of all available mosquitoes lured” value [2] is reported as 6.7%.
